Active and inactive are the calls of the source. The calls are words filed in the database; no cut-off is given here.
Assays:
[1] = target: Indoleamine 2,3-dioxygenase 1 (Homo sapiens, UniProt P14902); test: Inhibition of IDO1 (unknown origin) assessed as reduction in kynurenine formation using L-tryptophan as substrate by methylene blue reagent based assay
CT26 = test: Cytotoxicity against mouse CT26 cells assessed as reduction in cell viability by CCK8 assay; assay type: functional, cell-based
[2] = AUC (0 to infinity) in Sprague-Dawley rat at 50 mg/kg, po; assay type: ADME, organism-based; design: time infinity, dose 50 mg/kg, route po; conditions: in vivo
[3] = Oral bioavailability in Sprague-Dawley rat at 50 mg/kg; assay type: ADME, organism-based; conditions: in vivo
[4] = Half life in monkey liver microsomes; assay type: ADME, Macaca mulatta, Microsome; conditions: rhesus monkey
[5] = Protein binding in Beagle dog plasma by equilibrium dialysis; assay type: ADME, cell-free, Canis lupus familiaris; conditions: read-out: PPB (converted)
[6] = Protein binding in ICR mouse plasma assessed as fraction unbound by equilibrium dialysis; assay type: ADME, cell-free
HCT-116 [7] = test: Antitumor immunity in BALB/c mouse xenografted with human HCT-116 cells assessed as late Treg cells in spleen by propidium iodide staining based flow cytometry analysis (reference value: 10.3 %); assay type: functional
HCT-116 [8] = test: Antitumor immunity in BALB/c mouse xenografted with human HCT-116 cells assessed as late Treg cells in tumor-draining lymph nodes by propidium iodide staining based flow cytometry analysis (reference value: 18.3 %); assay type: functional
Mus musculus = test: In vivo inhibition of IDO2 in BALB/c mouse xenografted with human HCT-116 cells assessed as suppression of IDO2 expression in tumor by immunohistochemical assay; assay type: functional, organism-based
[9] = target: RAC-beta serine/threonine-protein kinase (Homo sapiens) (UniProt P31751); test: Inhibition of AKT2 (unknown origin) at 1 uM
[10] = target: Aurora kinase C (Homo sapiens) (UniProt Q9UQB9); test: Inhibition of Aurora C (unknown origin) at 1 uM
[11] = target: Cytoplasmic tyrosine-protein kinase BMX (Homo sapiens) (UniProt P51813); test: Inhibition of BMX (unknown origin) at 1 uM
[12] = target: Tyrosine-protein kinase BTK (Homo sapiens) (UniProt Q06187); test: Inhibition of BTK (unknown origin) at 1 uM
[13] = target: Hepatocyte growth factor receptor (Homo sapiens) (UniProt P08581); test: Inhibition of c-MET (unknown origin) at 1 uM
[14] = target: CDC7/DBF4 (Cell division cycle 7-related protein kinase/Activator of S phase kinase) (Homo sapiens) (UniProt Q9UBU7+O00311); test: Inhibition of CDC7/DBF4 (unknown origin) at 1 uM; assay type: protein-complex assay
[15] = target: CDK17/Cyclin-Y (Homo sapiens) (UniProt Q00537+Q8ND76); test: Inhibition of CDK17/cyclin-Y (unknown origin) at 1 uM; assay type: protein-complex assay
[16] = target: Dual specificity protein kinase CLK4 (Homo sapiens) (UniProt Q9HAZ1); test: Inhibition of CLK4 (unknown origin) at 1 uM
[17] = target: Serine/threonine-protein kinase DCLK2 (Homo sapiens) (UniProt Q8N568); test: Inhibition of DCAMKL2 (unknown origin) at 1 uM
[18] = target: Ephrin type-B receptor 1 (Homo sapiens) (UniProt P54762); test: Inhibition of EPHB1 (unknown origin) at 1 uM
[19] = target: Ephrin type-B receptor 2 (Homo sapiens) (UniProt P29323); test: Inhibition of EPHB2 (unknown origin) at 1 uM
[20] = target: Receptor tyrosine-protein kinase erbB-4 (Homo sapiens) (UniProt Q15303); test: Inhibition of ERBB4 (unknown origin) at 1 uM
[21] = target: Macrophage colony-stimulating factor 1 receptor (Homo sapiens) (UniProt P07333); test: Inhibition of FMS (unknown origin) at 1 uM
[22] = target: G protein-coupled receptor kinase 5 (Homo sapiens) (UniProt P34947); test: Inhibition of GRK5 (unknown origin) at 1 uM
[23] = target: Glycogen synthase kinase-3 alpha (Homo sapiens) (UniProt P49840); test: Inhibition of GSK3A (unknown origin) at 1 uM
[24] = target: Mitogen-activated protein kinase 9 (Homo sapiens) (UniProt P45984); test: Inhibition of JNK2 (unknown origin) at 1 uM
[25] = target: Serine/threonine-protein kinase ICK (Homo sapiens) (UniProt Q9UPZ9); test: Inhibition of LCK2 (unknown origin) at 1 uM
[26] = target: Serine/threonine-protein kinase STK11 (Homo sapiens) (UniProt Q15831); test: Inhibition of LKB1 (unknown origin) at 1 uM
[27] = target: Serine/threonine-protein kinase 10 (Homo sapiens) (UniProt O94804); test: Inhibition of LOK (unknown origin) at 1 uM
[28] = target: Serine/threonine-protein kinase MARK1 (Homo sapiens) (UniProt Q9P0L2); test: Inhibition of MARK1 (unknown origin) at 1 uM
[29] = target: Serine/threonine-protein kinase 3 (Homo sapiens) (UniProt Q13188); test: Inhibition of MST2 (unknown origin) at 1 uM
[30] = target: Serine/threonine-protein kinase Nek5 (Homo sapiens) (UniProt Q6P3R8); test: Inhibition of NEK5 (unknown origin) at 1 uM
[31] = target: Serine/threonine-protein kinase Nek7 (Homo sapiens) (UniProt Q8TDX7); test: Inhibition of NEK7 (unknown origin) at 1 uM
[32] = target: Phosphorylase b kinase gamma catalytic chain, skeletal muscle/heart isoform (Homo sapiens) (UniProt Q16816); test: Inhibition of PHKgamma1 (unknown origin) at 1 uM
[33] = target: cAMP-dependent protein kinase catalytic subunit beta (Homo sapiens) (UniProt P22694); test: Inhibition of PKAcb (unknown origin) at 1 uM
[34] = target: Protein kinase C iota type (Homo sapiens) (UniProt P41743); test: Inhibition of PKCiota (unknown origin)at 1 uM
Homo sapiens = species: Homo sapiens; test: Inhibition of PKG2 (unknown origin) at 1 uM
[35] = target: Serine/threonine-protein kinase SIK1 (Homo sapiens) (UniProt P57059); test: Inhibition of SIK1 (unknown origin) at 1 uM
[36] = target: Serine/threonine-protein kinase SIK3 (Homo sapiens) (UniProt Q9Y2K2); test: Inhibition of SIK3 (unknown origin) at 1 uM
[37] = target: NUAK family SNF1-like kinase 2 (Homo sapiens) (UniProt Q9H093); test: Inhibition of SNARK (unknown origin) at 1 uM
[38] = target: Tyrosine-protein kinase Srms (Homo sapiens) (UniProt Q9H3Y6); test: Inhibition of SRMS (unknown origin) at 1 uM
[39] = target: Serine/threonine-protein kinase 33 (Homo sapiens) (UniProt Q9BYT3); test: Inhibition of STK33 (unknown origin) at 1 uM
[40] = target: Serine/threonine-protein kinase TAO3 (Homo sapiens) (UniProt Q9H2K8); test: Inhibition of TAOK3 (unknown origin) at 1 uM
[41] = target: BDNF/NT-3 growth factors receptor (Homo sapiens) (UniProt Q16620); test: Inhibition of TRKB (unknown origin) at 1 uM
[42] = target: Serine/threonine-protein kinase VRK1 (Homo sapiens) (UniProt Q99986); test: Inhibition of VRK1 (unknown origin) at 1 uM

Chain of Serine/threonine-protein kinase 33 (Homo sapiens) (Q9BYT3 whole entry, looked up): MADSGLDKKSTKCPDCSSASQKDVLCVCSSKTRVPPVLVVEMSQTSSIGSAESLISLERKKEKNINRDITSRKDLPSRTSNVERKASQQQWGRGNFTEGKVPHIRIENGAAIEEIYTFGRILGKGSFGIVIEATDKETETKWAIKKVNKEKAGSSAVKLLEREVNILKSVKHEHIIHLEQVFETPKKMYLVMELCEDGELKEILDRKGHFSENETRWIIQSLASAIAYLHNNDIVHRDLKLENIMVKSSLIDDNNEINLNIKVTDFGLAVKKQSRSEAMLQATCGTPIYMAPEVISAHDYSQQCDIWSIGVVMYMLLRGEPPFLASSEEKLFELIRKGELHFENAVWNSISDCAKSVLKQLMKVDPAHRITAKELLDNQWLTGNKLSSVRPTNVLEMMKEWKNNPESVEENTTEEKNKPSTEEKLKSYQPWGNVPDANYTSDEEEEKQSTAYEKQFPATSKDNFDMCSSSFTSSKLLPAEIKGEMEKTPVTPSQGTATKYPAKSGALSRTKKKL
Chain of Serine/threonine-protein kinase TAO3 (Homo sapiens) (Q9H2K8 whole entry): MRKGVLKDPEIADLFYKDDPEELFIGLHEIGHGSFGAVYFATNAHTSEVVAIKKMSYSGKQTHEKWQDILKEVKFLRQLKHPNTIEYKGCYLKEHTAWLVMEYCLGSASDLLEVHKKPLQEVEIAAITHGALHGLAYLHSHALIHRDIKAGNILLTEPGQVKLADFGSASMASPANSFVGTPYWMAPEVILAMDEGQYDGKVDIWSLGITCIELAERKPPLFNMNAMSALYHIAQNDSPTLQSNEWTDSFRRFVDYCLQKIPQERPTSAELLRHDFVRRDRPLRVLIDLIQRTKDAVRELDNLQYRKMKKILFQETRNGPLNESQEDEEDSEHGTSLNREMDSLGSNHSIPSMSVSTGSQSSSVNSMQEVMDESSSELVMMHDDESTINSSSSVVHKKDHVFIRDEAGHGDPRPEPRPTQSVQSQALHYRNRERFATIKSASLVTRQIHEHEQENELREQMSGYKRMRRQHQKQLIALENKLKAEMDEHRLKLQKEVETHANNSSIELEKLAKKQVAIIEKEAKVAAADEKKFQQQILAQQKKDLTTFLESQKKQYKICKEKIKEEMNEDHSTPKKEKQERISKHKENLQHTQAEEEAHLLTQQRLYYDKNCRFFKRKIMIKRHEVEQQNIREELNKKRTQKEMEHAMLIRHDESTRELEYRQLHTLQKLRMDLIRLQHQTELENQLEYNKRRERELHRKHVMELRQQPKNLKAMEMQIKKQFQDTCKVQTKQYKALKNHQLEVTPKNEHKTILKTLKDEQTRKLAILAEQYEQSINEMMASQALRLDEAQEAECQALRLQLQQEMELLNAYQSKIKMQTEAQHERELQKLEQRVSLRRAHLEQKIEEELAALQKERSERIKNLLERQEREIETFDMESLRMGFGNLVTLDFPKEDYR
Chain of RAC-beta serine/threonine-protein kinase (Homo sapiens) (P31751 whole entry): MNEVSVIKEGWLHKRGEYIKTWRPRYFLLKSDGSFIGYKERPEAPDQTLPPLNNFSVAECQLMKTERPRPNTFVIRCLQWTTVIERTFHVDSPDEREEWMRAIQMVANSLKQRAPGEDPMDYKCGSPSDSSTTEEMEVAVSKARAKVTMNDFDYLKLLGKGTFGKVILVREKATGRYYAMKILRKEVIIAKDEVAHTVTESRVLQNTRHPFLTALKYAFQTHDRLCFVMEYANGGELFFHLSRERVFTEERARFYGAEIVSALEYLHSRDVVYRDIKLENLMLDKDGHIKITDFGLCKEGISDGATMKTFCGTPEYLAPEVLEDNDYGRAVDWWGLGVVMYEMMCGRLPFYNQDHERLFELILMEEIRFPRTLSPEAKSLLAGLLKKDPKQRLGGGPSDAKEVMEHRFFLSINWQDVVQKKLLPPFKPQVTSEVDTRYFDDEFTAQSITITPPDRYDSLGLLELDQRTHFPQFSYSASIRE
Chain of Hepatocyte growth factor receptor (Homo sapiens) (P08581 whole entry): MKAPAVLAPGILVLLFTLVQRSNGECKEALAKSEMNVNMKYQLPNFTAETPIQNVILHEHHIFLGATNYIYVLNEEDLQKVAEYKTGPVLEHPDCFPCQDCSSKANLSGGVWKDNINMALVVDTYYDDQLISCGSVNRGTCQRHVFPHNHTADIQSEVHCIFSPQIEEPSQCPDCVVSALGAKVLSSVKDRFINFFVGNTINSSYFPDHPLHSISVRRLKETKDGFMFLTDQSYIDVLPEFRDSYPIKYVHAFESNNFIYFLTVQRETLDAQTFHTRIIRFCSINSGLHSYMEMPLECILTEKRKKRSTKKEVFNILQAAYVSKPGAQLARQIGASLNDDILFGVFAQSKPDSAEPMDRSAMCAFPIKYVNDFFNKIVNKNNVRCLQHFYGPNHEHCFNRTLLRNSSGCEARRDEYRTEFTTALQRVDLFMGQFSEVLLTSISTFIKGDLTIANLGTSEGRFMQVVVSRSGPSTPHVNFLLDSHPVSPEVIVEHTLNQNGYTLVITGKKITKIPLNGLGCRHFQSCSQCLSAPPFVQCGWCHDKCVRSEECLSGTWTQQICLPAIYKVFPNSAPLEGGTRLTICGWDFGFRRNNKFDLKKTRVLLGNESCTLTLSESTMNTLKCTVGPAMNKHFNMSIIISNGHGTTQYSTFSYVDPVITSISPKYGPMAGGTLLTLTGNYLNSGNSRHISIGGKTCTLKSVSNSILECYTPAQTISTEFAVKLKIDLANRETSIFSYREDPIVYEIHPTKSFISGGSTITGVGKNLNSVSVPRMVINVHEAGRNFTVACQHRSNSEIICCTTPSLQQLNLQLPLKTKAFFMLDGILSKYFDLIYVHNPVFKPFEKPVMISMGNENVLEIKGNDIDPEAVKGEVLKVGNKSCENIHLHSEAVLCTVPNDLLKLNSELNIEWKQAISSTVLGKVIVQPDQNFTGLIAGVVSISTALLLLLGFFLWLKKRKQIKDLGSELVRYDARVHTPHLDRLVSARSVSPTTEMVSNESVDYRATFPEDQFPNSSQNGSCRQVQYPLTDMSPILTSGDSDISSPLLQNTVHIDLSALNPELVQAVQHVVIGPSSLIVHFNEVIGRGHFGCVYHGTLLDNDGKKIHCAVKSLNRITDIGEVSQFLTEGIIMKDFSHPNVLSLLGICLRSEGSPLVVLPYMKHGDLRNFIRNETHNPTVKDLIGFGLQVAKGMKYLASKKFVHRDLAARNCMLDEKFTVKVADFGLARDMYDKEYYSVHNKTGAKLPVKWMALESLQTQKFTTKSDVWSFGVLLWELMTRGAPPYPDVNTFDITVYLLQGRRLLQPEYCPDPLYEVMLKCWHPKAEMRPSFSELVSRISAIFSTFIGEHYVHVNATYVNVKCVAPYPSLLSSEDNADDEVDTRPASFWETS
Chain of Tyrosine-protein kinase BTK (Homo sapiens) (Q06187 whole entry): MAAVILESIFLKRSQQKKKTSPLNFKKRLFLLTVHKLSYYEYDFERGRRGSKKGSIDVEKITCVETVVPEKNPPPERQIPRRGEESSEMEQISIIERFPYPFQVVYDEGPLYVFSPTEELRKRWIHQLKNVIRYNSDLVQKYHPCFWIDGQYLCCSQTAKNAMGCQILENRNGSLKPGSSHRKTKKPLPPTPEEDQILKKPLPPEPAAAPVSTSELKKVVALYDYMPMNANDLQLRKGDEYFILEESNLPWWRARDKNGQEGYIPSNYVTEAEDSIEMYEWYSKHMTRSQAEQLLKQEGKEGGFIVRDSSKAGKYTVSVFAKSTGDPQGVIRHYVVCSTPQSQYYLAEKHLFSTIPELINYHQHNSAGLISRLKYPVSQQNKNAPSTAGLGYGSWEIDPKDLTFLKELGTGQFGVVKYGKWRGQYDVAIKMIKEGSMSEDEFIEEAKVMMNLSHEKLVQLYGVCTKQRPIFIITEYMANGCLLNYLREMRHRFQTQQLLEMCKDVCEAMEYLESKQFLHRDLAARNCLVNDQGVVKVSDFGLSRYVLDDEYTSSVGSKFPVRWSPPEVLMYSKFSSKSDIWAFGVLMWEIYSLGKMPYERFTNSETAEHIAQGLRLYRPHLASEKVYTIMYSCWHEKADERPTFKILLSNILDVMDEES
Chain of Serine/threonine-protein kinase Nek5 (Homo sapiens) (Q6P3R8 whole entry): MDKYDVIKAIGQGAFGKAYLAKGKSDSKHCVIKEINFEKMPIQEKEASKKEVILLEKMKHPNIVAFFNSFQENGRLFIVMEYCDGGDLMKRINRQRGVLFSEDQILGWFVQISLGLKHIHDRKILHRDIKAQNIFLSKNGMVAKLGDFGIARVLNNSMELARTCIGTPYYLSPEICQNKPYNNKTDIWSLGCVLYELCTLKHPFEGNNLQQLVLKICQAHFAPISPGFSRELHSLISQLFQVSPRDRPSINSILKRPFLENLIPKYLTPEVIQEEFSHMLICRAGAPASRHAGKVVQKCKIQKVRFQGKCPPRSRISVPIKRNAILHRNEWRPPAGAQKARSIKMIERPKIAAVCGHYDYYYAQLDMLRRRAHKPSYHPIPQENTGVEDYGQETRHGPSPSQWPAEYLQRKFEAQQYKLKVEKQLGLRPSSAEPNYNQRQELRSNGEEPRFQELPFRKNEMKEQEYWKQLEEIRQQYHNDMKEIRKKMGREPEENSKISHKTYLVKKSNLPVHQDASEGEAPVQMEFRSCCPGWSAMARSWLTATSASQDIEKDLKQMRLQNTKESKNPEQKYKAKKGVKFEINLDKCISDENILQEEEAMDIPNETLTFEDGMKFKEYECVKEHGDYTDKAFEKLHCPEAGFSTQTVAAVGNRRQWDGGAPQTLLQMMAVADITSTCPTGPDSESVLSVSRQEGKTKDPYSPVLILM
Chain of Serine/threonine-protein kinase Nek7 (Homo sapiens) (Q8TDX7 whole entry, looked up, canonical isoform): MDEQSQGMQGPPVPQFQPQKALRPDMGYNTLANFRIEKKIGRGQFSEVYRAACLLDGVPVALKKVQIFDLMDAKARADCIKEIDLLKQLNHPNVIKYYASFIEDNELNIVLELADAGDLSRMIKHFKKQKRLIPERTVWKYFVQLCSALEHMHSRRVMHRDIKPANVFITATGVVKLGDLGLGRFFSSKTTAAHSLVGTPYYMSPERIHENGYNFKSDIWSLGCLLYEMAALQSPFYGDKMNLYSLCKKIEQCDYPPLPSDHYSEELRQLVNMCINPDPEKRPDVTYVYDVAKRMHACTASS

OCCOCc1cn(CCNc2nonc2/C(=N/O)Nc2ccc(F)c(Br)c2)nn1
IC50 [1]: 0.028 µM
IC50 (CT26): 62 µM
AUC(0-inf) [2]: 3950 ng·h/mL
bioavailability [3]: 12%
half-life [4]: 38.6 min
fraction unbound [5]: 0.0498
fraction unbound [6]: 0.0968
Activity (HCT-116 [7]): 7.24%
Activity (HCT-116 [8]): 7.31%
inhibition (Mus musculus): Active
inhibition [9]: inactive
inhibition [10]: inactive
inhibition [11]: inactive
inhibition [12]: inactive
inhibition [13]: inactive
inhibition [14]: inactive
inhibition [15]: inactive
inhibition [16]: inactive
inhibition [17]: inactive
inhibition [18]: inactive
inhibition [19]: inactive
inhibition [20]: inactive
inhibition [21]: inactive
inhibition [22]: inactive
inhibition [23]: inactive
inhibition [24]: inactive
inhibition [25]: inactive
inhibition [26]: inactive
inhibition [27]: inactive
inhibition [28]: inactive
inhibition [29]: inactive
inhibition [30]: inactive
inhibition [31]: inactive
inhibition [32]: inactive
inhibition [33]: inactive
inhibition [34]: inactive
inhibition (Homo sapiens): inactive
inhibition [35]: inactive
inhibition [36]: inactive
inhibition [37]: inactive
inhibition [38]: inactive
inhibition [39]: inactive
inhibition [40]: inactive
inhibition [41]: inactive
inhibition [42]: inactive
